A short description of data set [1]: Lipid clearance from liver over time after human OTC mRNA LNP (LC-MS). It counts as in vivo. To be noted: IV 0.5 mg/kg human OTC mRNA LNP, male C57BL/6 mice (n = 4). On the procedure:
(§1) LNP formulations encapsulating ornithine transcarbamylase mRNA were injected intravenously at the specified dose levels to male C57BL/6 mice (6-8 weeks old).
(§2) Liver tissues were treated with PBS and homogenized with a FastPrep machine, 3 cycles of 5 m/s×15 s. Homogenates from the PBS-treated control animals was pooled and used for standard curve preparation. Samples were extracted into a deep well plate with 250 μL of an internal suitability standard. Plates were centrifuged for 15 min at 4° C. and 2000 rpm. Analysis was performed using an Agilent 6520 QTOF coupled to an Agilent 1290 UHPLC, using reverse-phase LC separation. Quantitation of the ionizable lipid was by MS/MS against a calibration curve spiked into appropriately matched blank matrix. Calibration used a similar class of synthetic lipid as internal standard.
At various timepoints post-dose, lipid levels were assessed in the liver. Some novel ionizable lipids reported more rapid clearance rates compared to the benchmark (Table 19).

A short description of data set [2]: Parent ionizable lipid remaining in liver at 6 h after luciferase mRNA LNP (LC-MS). The format is in vivo. To be noted: 6 h after IV 0.5 mg/kg Luciferase mRNA LNP.
Data set [3] can be described thus: Particle characteristics of LNPs containing luciferase mRNA and novel ionizable lipids. It counts as physicochemical. The settings on record: Table 6; luciferase mRNA LNP 1.6:54.6:32.8:10.9. Put shortly:
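LNPs made from PEG-lipid, ionizable lipid, cholesterol and phospholipid in ethanol, T-mixed with luciferase mRNA in 100 mM acetate pH 5. Products were dialysed, concentrated, and dialysed into 5 mM Tris, 10% sucrose, pH 8, then 0.2 μm filtered. mRNA was measured by RiboGreen, and size and polydispersity by dynamic light scattering on a Zetasizer.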

The subject of data set [4] is human OTC expression in the liver. Put plainly: Dose response of human OTC mRNA LNP, OTC expression in liver (ELISA). It counts as in vivo. The settings on record: 24 h, male C57BL/6 mice (n = 4). On the procedure: as §1
Liver homogenates were prepared with PBS, Halt protease inhibitor cocktail and FastPrep homogenization, standardized to 2 mg/mL protein with a BCA Protein Assay, and then analyzed by ELISA. Briefly, samples were diluted with PBS and plated on Nunc Maxisorp plates. A standard curve using human […] protein was prepared from the naïve animal controls (vehicle). After 2 h incubation the plates were washed, and the primary antibody was added. After 1 h incubation, the secondary antibody was added and incubated for another hour. After washing, TMB Substrate was added for color development and the reaction was stopped with 2 N sulfuric acid. The plate was read at 450/570 OD.
At 24 h post-dose, the novel lipid formulations reported dose-dependent increases in human OTC expression in the liver (Table 15).

Data set [5] has as its system luciferase activity in the liver. Put plainly: Luciferase activity in liver after intravenous luciferase mRNA LNP. The format is in vivo. The settings on record: 0.5 mg/kg IV, 6 h post-IV administration, BALB/c mice (n = 4).
Data set [6] in a line: Parent ionizable lipid remaining in liver at 24 h after EGFP mRNA LNP (LC-MS). The format is in vivo. To be noted: Table 29; 24 h after IV 0.5 mg/kg EGFP mRNA LNP, female BALB/c mice (n = 4). On the procedure:
as §2
At 24 h post-dose, some treatment groups reported lower levels of novel ionizable lipid in mouse liver compared to the benchmark (Tables 28-31).

The nature of data set [7]: Lipid clearance from liver over time after EGFP mRNA LNP (LC-MS). To be noted: IV 0.5 mg/kg EGFP mRNA LNP, female BALB/c mice (n = 4). The format is in vivo. On the procedure: as §2
At various timepoints post-dose, lipid levels were assessed in the liver. Some novel ionizable lipids reported more rapid clearance rates compared to the benchmark (Table 33).

For data set [8], the system named is EGFP expression in the liver. Put plainly: Dose response of EGFP mRNA LNP, EGFP expression in liver. It counts as in vivo. To be noted: 24 h, female BALB/c mice (n = 4). On the procedure:
At 24 h post-dose, the novel lipid formulations reported dose-dependent increases in EGFP expression in the liver (Table 32).

Data set [9] deals with EGFP expression in the liver. As to the kind of experiment: EGFP expression in liver after intravenous EGFP mRNA LNP (ELISA). To be noted: Table 25; 0.5 mg/kg IV, 24 h post-IV administration, BALB/c mice (n = 4). On the technique in general: ELISA stands for enzyme-linked immunosorbent assay.
Experimental: LNP formulations encapsulating enhanced green fluorescent protein mRNA were injected intravenously at 0.5 mg/kg to female BALB/c mice (6-8 weeks old). On day of injection, the LNP stocks were filtered and diluted to the required dosing concentration with phosphate buffered saline. At 24 hours post-administration, animals were anaesthetized with a lethal dosage of ketamine/xylazine. Liver samples (left lateral lobe) were collected, weighed, and flash frozen in liquid nitrogen. Liver samples were stored in FastPrep® tubes at −80° C. until analyzed for EGFP expression.
Liver homogenates were prepared in cell extraction buffer, diluted, and analyzed for EGFP protein levels using ELISA, according to manufacturer's instructions (Abcam, GFP ELISA Kit).
Data set [10] is described as follows: Particle characteristics of LNPs containing EGFP mRNA and novel ionizable lipids. The format is physicochemical. To be noted: Table 21; EGFP mRNA LNP 1.6:54.6:32.8:10.9. On the procedure: The lipid solution contains 4 components: a PEG-conjugated lipid, an ionizable lipid, cholesterol, and a phospholipid (e.g., DSPC). Lipid stocks were prepared using the lipid identities and molar ratios as described, to achieve a total concentration of ˜7 mg/mL in 100% ethanol. […] Equal volumes of the lipid and nucleic acid solutions were blended at a flow rate of 400 mL/min through a T-connector, and diluted with ˜4 volumes of PBS, pH 7.4. Formulations were placed in Slide-A-Lyzer dialysis units (MWCO 10,000) and dialyzed overnight against 10 mM Tris, 500 mM NaCl, pH 8 buffer. Following dialysis, the formulations were concentrated to ˜0.6 mg/mL using VivaSpin concentrator units (MWCO 100,000) and dialyzed overnight against 5 mM Tris, 10% sucrose, pH 8 buffer. Formulations were filtered through a 0.2 μm syringe filter (PES membrane). Nucleic acid concentration was determined by the RiboGreen assay. Particle size and polydispersity were determined using a Malvern Nano Series Zetasizer.
LNP formulations containing novel ionizable lipids all produced stable particles with high encapsulation efficiency (Tables 20-23).

[11] abbreviates: Table 18, female BALB/c mice (n = 4).

For `CCCCCCCCCCN(C(=O)CCCN(C)C)C(CCCCCCCCC)CCCCCCC(F)(F)C(=O)OCCC(CCCCCC)CCCCCC` (stereo not shown) [Compound 16, 3-hexylnonyl 9-(N-decyl-4-(dimethylamino)butanamido)-2,2-difluorooctadecanoate], the “Parent ionizable lipid remaining in liver, Average” value (“Parent ionizable lipid remaining” for short) in data set [1] (0.25 h post-dose) stood at 11.11 nmol/g liver; in data set [1] (1 h post-dose), 15.47 nmol/g liver; in [1] (3 h post-dose) it was 10.91 nmol/g liver; in [1] (6 h post-dose) it was 4.71 nmol/g liver; in [1] (24 h post-dose), 1.33 nmol/g liver; in data set [1] (168 h post-dose), 0.04 nmol/g liver. The “Parent ionizable lipid remaining” value came to 6.32 nmol/g liver in data set [2] (Table 17, female mice (n = 4)) and 17.06 nmol/g liver in [2] (setting [11]). Also, the “Final Product % EE” value in [3] came out at 95%. The “Final Product PDI” value in data set [3] is reported as 0.10. In addition, the “Final Product Z-avg” value in [3] is 76 nm. Also, the “Human OTC expression” value in data set [4] (0.3 mg/kg IV) was 1155 ng hOTC/mg protein in liver; in data set [4] (1 mg/kg IV) it was 4127 ng hOTC/mg protein in liver; in data set [4] (3 mg/kg IV), 10316 ng hOTC/mg protein in liver. Further, in [5] (Table 13), the “Luc Activity” value stood at 4.39E+07 pg/g liver.

For `CCCCCCCCCCC(CCCCCCC(=O)OCC(CCCCCC)CCCCCCCC)N(CCCCCCC(F)(F)C(=O)OCC(CCCCCC)CCCCCCCC)C(=O)CCCN(C)C` (stereo not shown) [Compound 33], the “Parent ionizable lipid remaining” value came out at 33.97 nmol/g liver in data set [1] (0.25 h post-dose); 98.57 nmol/g liver in data set [1] (1 h post-dose); 76.20 nmol/g liver in data set [1] (3 h post-dose); 86.57 nmol/g liver in [1] (6 h post-dose); 58.68 nmol/g liver in data set [1] (24 h post-dose); 6.22 nmol/g liver in data set [1] (168 h post-dose). Besides, the “Human OTC expression” value in data set [4] (0.3 mg/kg IV) is 660 ng hOTC/mg protein in liver; in [4] (1 mg/kg IV) it was 2954 ng hOTC/mg protein in liver; in data set [4] (3 mg/kg IV), 11080 ng hOTC/mg protein in liver.

Take `CCCCCCCCCCON(C(=O)CCCN(C)C)C(CCCCCCCCCC)CCCCCCC(=O)OCCC(CCCCC)CCCCC` (stereo not shown) [Compound 43, 3-pentyloctyl 8-[N-(decyloxy)-4-(dimethylamino)butanamido]octadecanoate]: the “Parent ionizable lipid remaining” value in data set [1] (0.25 h post-dose) came out at 22.97 nmol/g liver; in data set [1] (1 h post-dose) it was 38.91 nmol/g liver; in [1] (3 h post-dose), 28.99 nmol/g liver; in data set [1] (6 h post-dose), 24.19 nmol/g liver; in data set [1] (24 h post-dose), 13.50 nmol/g liver; in data set [1] (168 h post-dose) it was 0.19 nmol/g liver. In addition, the “Parent ionizable lipid remaining” value in [2] (Table 17, female mice (n = 4)) came to 25.97 nmol/g liver; in data set [2] (setting [11]) it was 23.83 nmol/g liver. In addition, in data set [3], the “Final Product % EE” value is on record as 99%. Also, the “Final Product PDI” value in data set [3] was found to be 0.05. For the same compound, in data set [3], the “Final Product Z-avg” value came out at 73 nm. Further, the entries for the “Human OTC expression” value in data set [4] (0.3 mg/kg IV), in [4] (1 mg/kg IV) and in data set [4] (3 mg/kg IV) were 1247 ng hOTC/mg protein in liver, 5713 ng hOTC/mg protein in liver and 12887 ng hOTC/mg protein in liver, respectively. Besides, the “Luc Activity” value in data set [5] (Table 13) is given as 1.04E+08 pg/g liver.

With `CCCCCCCCCCC(CCCCCCC(=O)OCCC(CCCCC)CCCCC)N(CCCCCCCC(=O)OCCC(CCCCC)CCCCC)C(=O)CCCN(C)C` (stereo not shown) [Compound 67], the “Parent ionizable lipid remaining” value is listed as 12.37 nmol/g liver in [1] (0.25 h post-dose); 21.11 nmol/g liver in [1] (1 h post-dose); 16.12 nmol/g liver in data set [1] (3 h post-dose); 10.82 nmol/g liver in data set [1] (6 h post-dose); 11.31 nmol/g liver in data set [1] (24 h post-dose); 0.72 nmol/g liver in data set [1] (168 h post-dose). Moreover, in [2] (setting [11]), the “Parent ionizable lipid remaining” value was 31.32 nmol/g liver. In addition, the “Luc Activity” value in data set [5] (Table 12) is recorded as 1.31E+08 pg/g liver.

Regarding `CCCCCCCCCCN(C(=O)CCCN(C)C)C(CCCCCCCCC)CCCCC(F)(F)C(=O)OC(CCCCCCC)CCCCCCC` (stereo not shown) [Compound 101, Pentadecan-8-yl 7-(N-decyl-4-(dimethylamino)butanamido)-2,2-difluorohexadecanoate], the “Parent ionizable lipid remaining” value in [6] is 16.30 nmol/g liver; in data set [7] (0.25 h post-dose) it was 23.8 nmol/g liver; in [7] (1 h post-dose), 42.4 nmol/g liver; in data set [7] (3 h post-dose), 26.9 nmol/g liver; in [7] (6 h post-dose), 30.6 nmol/g liver; in data set [7] (24 h post-dose), 12.6 nmol/g liver. In addition, the “Parent ionizable lipid remaining” value in data set [7] (168 h post-dose) is recorded as 0.6 nmol/g liver. The EGFP expression in [8] (0.3 mg/kg IV) is 2.65e+07 pg EGFP/g liver; in data set [8] (1 mg/kg IV) it was 1.04e+08 pg EGFP/g liver; in data set [8] (3 mg/kg IV), 3.9e+08 pg EGFP/g liver. Also, the EGFP in data set [9] was 2.25E+05 pg/g liver. For the same compound, in [10], the “Final Product % EE” value stood at 100%. In data set [10], the “Final Product PDI” value was 0.10. Moreover, the “Final Product Z-avg” value in data set [10] was 70 nm.

For the origin of these results see US20250332112A1, “IONIZABLE CATIONIC LIPIDS FOR LIPID NANOPARTICLES” (GENEVANT SCIENCES GMBH, priority 2022, published 2025).
